Experimental data from PMC10974272, “Cytotoxic and Antiproliferative Activity of LASSBio-2208 and the Attempts to Determine Its Drug Metabolism and Pharmacokinetics In Vitro Profile” (Pharmaceuticals, 2024).
Like-named read-outs stand apart in the source and are kept apart here.

Tests used:
[1] = test system: human leukaemia cell line (CCRF-CEM); design: method as in PMID 37259357; conditions: cited from earlier work
MCF-7 = experiment: SRB cell viability/antiproliferative assay, MCF-7; conditions: Homo sapiens, MCF7, 48 h
[2] = test system: human prostate cancer cell line (PC-3); experiment: MTT cell viability assay, PC-3; design: Emax: dose or concentration left out as unconfirmed
Protocol: (§8) After the incubation time, the plate was centrifuged (Universal centrifuge 320R Hettich, Kirchlengern, Germany) at 440× g, 10 min and 4 °C, then 110 µL of supernatant was removed and 10 µL of MTT solution was added and left to incubate for 3.5 h in the oven at 37 °C and 5% CO2. […] The CC50 was calculated using the GraphPad Prism 9.0 program. Each sample was tested in triplicate in three independent experiments (N3) [32, 33].

[3] = test system: T lymphoblast cell line (MOLT-4); design: method as in PMID 37259357; conditions: cited from earlier work
[4] = test system: human leukaemia cell line (CCRF-CEM); experiment: MTT cell viability assay, CCRF-CEM
Protocol: as §8

PC-3 = experiment: SRB cell viability/antiproliferative assay, PC-3; conditions: for Emax: SRB 48 h, PC-3, maximum effect at maximum concentration used
CCRF-CEM = experiment: SRB cell viability/antiproliferative assay, CCRF-CEM; conditions: Homo sapiens, 48 h
[5] = test system: T lymphoblast cell line (MOLT-4); experiment: MTT cell viability assay, MOLT-4; conditions: Homo sapiens
Protocol: as §8

[6] = test system: human prostate cancer cell line (PC-3); design: method as in PMID 37259357; conditions: cited from earlier work
[7] = test system: breast cancer cell line (MCF-7); experiment: MTT cell viability assay, MCF-7
Protocol: as §8

MOLT-4 = experiment: SRB cell viability/antiproliferative assay, MOLT-4; conditions: Homo sapiens, MOLT-4, 48 h
[8] = Non-specific microsome protein binding; type: in vitro ADME; conditions: rat, pH 7.4; liver microsomes 0.5 mg protein/mL, 37 °C, 60 min; read-out: Percentage of ƒu(mic) (unbound fraction in nonspecific microsomal binding)
Protocol: Once such bonds are formed, the bound fraction would become incapable of being metabolized.
Liver microsomes were diluted with PBS pH 7.4 to a concentration of 0.5 mg protein/mL and 3 µL at 1 mM of the working test compound and solutions were mixed with 357 µL of liver microsome suspension. After mixing, duplicate 200 µL aliquots were immediately removed, while another microtubule acted as the control sample (T 0 h), and were quenched with 400 µL of cold acetonitrile containing analytical internal standards. The other samples were incubated at 37 °C at 100 rpm, for 60 min with the same subsequent treatment.

PAMPA—BBB = type: in vitro ADME; design: key to Classification BBB: permeable (CNS+); non-permeable (CNS−)
Protocol: (§1) To obtain information on the permeability potential of LASSBio-2208 on cell membranes, this derivative was tested using the parallel artificial membrane permeability assay (PAMPA) that is used as an in vitro model of passive diffusion and transcellular permeation. In this model, the permeability across two artificial membranes is measured: brain lipid from pig extract in dodecane (called PAMPA—BBB) and L-α soy phosphatidylcholine in dodecane (called PAMPA—TGI).
(§2) To perform the permeability assay we used a donor plate where the compounds (tests or controls) are diluted in a buffered medium, characterized by the presence of a synthetic membrane of polyvinylidene fluoride (PVDF) impregnated with a lipid solution, forming a barrier through which the compounds migrate through a diffusion process to the lower plate called the receptor.
(§3) The lipid mixture that impregnates the filter has a different constitution for the permeability tests for the blood–brain barrier (brain lipid from pig extract in dodecane) and gastrointestinal tract (L-α soy phosphatidylcholine in dodecane). In the PAMPA—BBB and PAMPA—GIT assays, the optical density values obtained in the reading at each selected wavelength, for each of the compounds were analysed in comparison with the values of several controls. In the case of the BBB, these values were used to elaborate an equation and determine the permeability coefficient (Pe), using a previously elaborated spreadsheet, and, for the PAMPA—GIT, these values were used to determine the absorbed fraction (Fa%), both using the Excel program. The permeability result for PAMPA—GIT classifies the compounds according to the percentage of absorbed fraction (Fa%), as follows: high intestinal permeability (70–100%), medium permeability (30–69%) or low permeability (0–29%), and the samples were diluted from a stock solution of 10 mM. The PAMPA—BBB model classifies the compounds only as follows: permeable (CNS+) or non-permeable (CNS−) and the assays were made from a stock solution of 1 mg for each compound [25, 40, 41, 42].

PAMPA—GIT = type: in vitro ADME; conditions: for Papp: PAMPA, read-out: Pe. Exp. GIT; for Classification GIT: by fraction absorbed
Protocol: as §1, §2, §3

[9] = test system: breast cancer cell line (MCF-7); design: method as in PMID 37259357; conditions: cited from earlier work
[10] = PBMC viability assay by MTT; type: cell-based, human; conditions: MTT 48 h, non-tumour human PBMC
Protocol: (§4) The SI indicates how selective a compound is for a tumour cell line compared with a non-tumour cell line.
(§5) Human peripheral blood mononuclear cells (PBMCs) were used to determine the selectivity index (SI) and were obtained from healthy volunteers under a protocol approved by the Ethics Committee CAAE: 38257914.7.0000.5259. Immortalized cells were also obtained from the Rio de Janeiro Cell Bank (BCRJ).
(§6) First, 8 mL of blood from each healthy donor (3 people) was collected in a tube with EDTA in a 1:20 ratio to prevent the blood from clotting. In a 15 mL Falcon tube containing 4 mL of Ficoll-Paque, the 8 mL of blood collected was slowly added, letting it fall down the walls of the tube. It was centrifuged (Universal Centrifuge 320R Hettich) for 40 min at 750× g at 21 °C with acceleration 1 and brake 0. After centrifugation, in order to extract the ring of mononuclear cells, the supernatant above it was first carefully discarded so as not to disturb the ring. The ring was then slowly removed and placed in another 15 mL Falcon tube to which pure RPMI-1640 medium was added in a 1:1 ratio and centrifuged for 10 min at 580× g and 21 °C with acceleration 8 and brake 9 [34, 35].
(§7) The supernatant was discarded, and the pellet was resuspended in 1 mL of RPMI-1640 medium supplemented with 10% SBF and 1% antibiotic. An amount of 20 µL of cells were taken from the mixture and added to 380 µL of trypan blue dye for counting in the Neubauer chamber. Considering that 80% of PBMCs are lymphocytes and the rest are monocytes, the cells were plated with the aim of having 10^5 cell/well.

[11] = test system: human peripheral blood mononuclear cells (hPBMC); experiment: PBMC viability assay by MTT; type: cell-based; conditions: MTT 48 h, human PBMC; maximum cytotoxic response at 100 µM
Protocol: as §4, §5, §6, §7

Question: Which CC50 [1] does the source give for CN(C)C1CCN(C(=O)c2ccc(NC(=O)Nc3ccc(-c4nc(N5CCOCC5)nc(N5CCOCC5)n4)cc3)cc2)CC1 [Gedatolisib, gedatolisib] here?
Answer: 0.03 µM

Question: And the CC50 (MCF-7)?
Answer: 0.03 µM

Question: What about the Emax (MCF-7) of the same compound?
Answer: 95.7%

Question: What about the CC50 ([2]; Homo sapiens, 24 h) of the same compound?
Answer: > 100 µM

Question: What about the Emax ([2]; Homo sapiens, 24 h) of the same compound?
Answer: 48%

Question: And the CC50 ([2]; Homo sapiens, 48 h)?
Answer: 5.05 µM

Question: What about the Emax ([2]; Homo sapiens, 48 h) of the same compound?
Answer: 60.5%

Question: And the CC50 ([2]; Homo sapiens, 72 h)?
Answer: 0.86 µM

Question: And the Emax ([2]; Homo sapiens, 72 h)?
Answer: 81.1%

Question: And the CC50 [3]?
Answer: 0.02 µM

Question: What about the CC50 ([4]; 24 h) of the same compound?
Answer: 0.31 µM

Question: What about the Emax ([4]; 24 h) of the same compound?
Answer: 98.6%

Question: And the CC50 ([4]; 48 h)?
Answer: 0.085 µM

Question: What about the Emax ([4]; 48 h) of the same compound?
Answer: 99.5%

Question: What about the CC50 ([4]; 72 h) of the same compound?
Answer: 0.09 µM

Question: What about the Emax ([4]; 72 h) of the same compound?
Answer: 100%

Question: And the CC50 (PC-3; Homo sapiens, PC-3, 48 h)?
Answer: 6.16 µM

Question: And the Emax (PC-3; Homo sapiens, PC-3, 48 h)?
Answer: > 50%

Question: What about the CC50 (CCRF-CEM) of the same compound?
Answer: 0.78 µM

Question: And the Emax (CCRF-CEM)?
Answer: 66.2%

Question: And the CC50 ([5]; MOLT-4, 24 h)?
Answer: 0.35 µM

Question: What about the Emax ([5]; MOLT-4, 24 h) of the same compound?
Answer: 97.2%

Question: What about the CC50 ([5]; MOLT-4, 48 h) of the same compound?
Answer: 0.08 µM

Question: And the Emax ([5]; MOLT-4, 48 h)?
Answer: 99.3%

Question: And the CC50 ([5]; MOLT-4, 72 h)?
Answer: 0.07 µM

Question: What about the CC50 [6] of the same compound?
Answer: 0.54 µM

Question: And the CC50 ([7]; Homo sapiens, MCF7, 24 h)?
Answer: 5.04 µM

Question: What about the Emax ([7]; Homo sapiens, MCF7, 24 h) of the same compound?
Answer: 79.9%

Question: And the CC50 ([7]; Homo sapiens, MCF7, 48 h)?
Answer: 0.21 µM

Question: What about the Emax ([7]; Homo sapiens, MCF7, 48 h) of the same compound?
Answer: 96.8%

Question: What about the CC50 ([7]; Homo sapiens, MCF7, 72 h) of the same compound?
Answer: 0.06 µM

Question: What about the CC50 (MOLT-4) of the same compound?
Answer: 3.68 µM

Question: And the Emax (MOLT-4)?
Answer: 69.2%

Question: What about the fraction unbound at 60 min, 8.3 µM [8] of the same compound?
Answer: 0.503

Question: What about the “Classification BBB” value (PAMPA—BBB) of the same compound?
Answer: Insoluble

Question: And the “Pe. Exp. BBB” value (PAMPA—BBB)?
Answer: Insoluble

Question: And the “Pe. Exp. BBB” value (PAMPA—BBB; listed as gedatolisib)?
Answer: insoluble

Question: And the “Fraction Absorbed” value (PAMPA—GIT)?
Answer: 48.4%

Question: What about the Papp (PAMPA—GIT) of the same compound?
Answer: 17.4 nm/s

Question: What about the CC50 [9] of the same compound?
Answer: 0.07 µM

Question: What does the source list for CN1CCc2c(c3ccccc3n2Cc2ccc(C(=O)NO)cc2)C1 [Tubastatin A, tubastatin A]?
Answer: CC50 (MCF-7): 66 µM; Emax (MCF-7; SRB 48 h, MCF-7, maximum effect at maximum concentration used): > 70%; CC50 ([2]; Homo sapiens, 24 h): > 100 µM; Emax ([2]; Homo sapiens, 24 h): 41.8%; CC50 ([2]; Homo sapiens, 48 h): 65.9 µM; Emax ([2]; Homo sapiens, 48 h): 67.8%; CC50 ([2]; Homo sapiens, 72 h): 34.9 µM; Emax ([2]; Homo sapiens, 72 h): 83.6%; CC50 ([2]; MTT 24 h, PC-3): did not show any cytotoxic activity; CC50 ([4]; 24 h): 12.5 µM; Emax ([4]; 24 h): 95.8%; CC50 ([4]; 48 h): 9.38 µM; Emax ([4]; 48 h): 99.1%; CC50 ([4]; 72 h): 7.11 µM; Emax ([4]; 72 h): 99.3%; CC50 (PC-3; Homo sapiens, PC-3, 48 h): > 100 µM; Emax (PC-3; Homo sapiens, PC-3, 48 h): < 35%; Emax (PC-3): 39.3%; CC50 (CCRF-CEM): 9.69 µM; Emax (CCRF-CEM): 69.5%; Emax ([5]; MOLT-4, 24 h): 94.6%; CC50 ([5]; MOLT-4, 48 h): 7.5 µM; Emax ([5]; MOLT-4, 48 h): 98.2%; Emax ([5]; MOLT-4, 72 h): 98.7%; CC50 ([7]; Homo sapiens, MCF7, 24 h): > 100 µM; Emax ([7]; Homo sapiens, MCF7, 24 h): 40.1%; CC50 ([7]; Homo sapiens, MCF7, 48 h): > 100 µM; Emax ([7]; Homo sapiens, MCF7, 48 h): 48.2%; CC50 ([7]; Homo sapiens, MCF7, 72 h): 83.6 µM; Emax ([7]; Homo sapiens, MCF7, 72 h): 56.8%; CC50 ([7]; MTT 24 h, MCF-7): did not show any cytotoxic activity; CC50 (MOLT-4): 10.5 µM; Emax (MOLT-4): 54.4%; fraction unbound at 60 min, 8.3 µM [8]: 0.131; CC50 at 48 h [10]: 85.7 µM; Emax [11]: 58.2%; Classification BBB (PAMPA—BBB): CNS+; Papp (PAMPA—BBB; read-out: Pe. Exp. BBB): 55.4 nm/s; Fraction Absorbed (PAMPA—GIT): 52.93%; Papp (PAMPA—GIT): 19.8 nm/s; Classification GIT (PAMPA—GIT): Medium (medium permeability (30–69%)); Classification GIT (PAMPA—GIT; listed as tubastatin A): medium; Fraction Absorbed (PAMPA—GIT; listed as tubastatin A): 52.9%
